# Marks after values point to notes of the source that are not given here.
# Tests used:
# [1] = Drilled well water softening and purification (Example 15)
# Experimental: Drilled well sample 1 (DW 1) was nearby Tampere and sample 2 (DW 2) nearby Turku. Samples (100 ml each) were stirred with 1a (1.0 g) for 24 h. The initial and final metal concentrations in solutions of selected metals were determined by using ICP-AES analysis after filtration and results are shown in Table 9.
# [2] = Purification of waste water containing heavy metals, TS 2 (Example 17)
# Experimental: Waste water sample from dumping site containing some heavy metals: ca. 2 g/l of Ca^2+; […] of As^3+ (or As^5+), Cr^3+, Fe^2/3+, Pb^2+, Sr^2+, Zn^2+ and Hg^2+; pH 3.56.
# TS 2 (100 ml), which initial metal cation concentrations were determined by AAS and ICP-AES methods, was treated with 1a (1.0 g) with stirring for 24 h. After filtration trough 0.2 μm syringe filter metal concentrations in solution were determined.
# [3] = Optimal expulsion pH range with minimum expulsion percent, single elements (Example 7)
# Experimental: A water solution (110 ml) containing known amount of single cationic element or elements, typically 0.5-200 ppm, was prepared from Merch Titrisol® standard solution. After adjusting pH by using acid (e.g. HCl or HNO3) or base (e.g. NaOH) to desired initial value, sample A (10 ml) was taken followed by adding 100 mg of selected solid complexation agent. The mixture was stirred at room temperature for 24 h and sample B (10 ml) was taken. Samples A and B were filtrated separately trough 0.2 μm syringe filter and the concentration of the studied element or elements in both solution was determined by using atomic absorption spectrophotometer. The expulsion percent was determined from the concentration differences between the sample solutions A and B.
# Using the above mentioned general procedure optimal expulsion pH ranges for each metal with complexation agent 1a was determined. For each element the expulsion percent was determined in 5-14 different pH value. The obtained results are shown in table below with minimum expulsion percent inside the optimal pH range.
# [4] = Simultaneous collection of Al, Ga and V from TS 5 at pH 0.5 (Example 23); conditions: spiked TS 5, pH 0.5, 1a 10 g
# Experimental: A test solution containing 1-15 mg/l of Al^3+, Fe^2/3+, Mg^2+, Mn^2+, Ni^2+ and Zn^2+; 0.1-0.9 mg/l of Ca^2+ and Na^+; and trace amount of other Cr^3+, Co^2+, Cu^2+, Eu^3+, La^3+, Nd^3+, Y^3+, UO2^2+ and Nb^5+ cations were prepared.
# TS 5 (100 ml) was spiked with known amounts of Al^3+, Ga^3+ and V^4+ Merch Titrisol® standard solutions. After pH of the mixture was adjusted to 0.5 by HNO3 sample A was taken followed by adding 1a (10 g). The mixture was stirred at room temperature for 24 h and sample B was taken. Samples A and B were filtrated separately trough 0.2 μm syringe filter and the concentrations of the studied elements in both solution were determined by using ICP-AES method. The expulsion percent for each element were determined from the concentration differences between the sample A and B. The experimental results are given in Table 17.
smiles,measurement,setting,value
"NCCCCCCCCCCC(O)(P(=O)(O)O)P(=O)(O)O [Compound 1a, 11-Amino-1-hydroxyundecane-1,1-diyldiphosphonic acid]",Concentration after 1a,"[1]; DW 1 (pH 7.04), Al^3+, initial <0.05 mg/l",<0.05 mg/L
same,Concentration after 1a,"[1]; DW 1 (pH 7.04), Ca^2+, initial 43.8 mg/l",0.232 mg/L
same,Concentration after 1a,"[1]; DW 1 (pH 7.04), Cu^2+, initial <0.05 mg/l",<0.05 mg/L
same,Concentration after 1a,"[1]; DW 1 (pH 7.04), Mg^2+, initial 10.9 mg/l",<0.1^4) mg/l
same,Concentration after 1a,"[1]; DW 1 (pH 7.04), Mn^2+, initial 0.095 mg/l",<0.02^4) mg/l
same,Concentration after 1a,"[1]; DW 1 (pH 7.04), Na^+, initial 15.2 mg/l",13.5 mg/L
same,Concentration after 1a,"[1]; DW 1 (pH 7.04), Sr^2+, initial 0.097 mg/l",<0.02^4) mg/l
same,Concentration after 1a,"[1]; DW 1 (pH 7.04), Zn^2+, initial 0.044 mg/l",0.018 mg/L
same,Expulsion [%],"[1]; DW 1, Ca^2+",99%
same,Expulsion [%],"[1]; DW 1, Mg^2+",≥ 99^5) %
same,Expulsion [%],"[1]; DW 1, Mn^2+",≥ 79^5) %
same,Expulsion [%],"[1]; DW 1, Na^+",11%
same,Expulsion [%],"[1]; DW 1, Sr^2+",≥ 79^5) %
same,Expulsion [%],"[1]; DW 1, Zn^2+",≥ 59^5) %
same,Concentration after 1a,"[1]; DW 2 (pH 6.97), Al^3+, initial 0.107 mg/l",<0.05^4) mg/l
same,Concentration after 1a,"[1]; DW 2 (pH 6.97), Ca^2+, initial 22.2 mg/l",0.479 mg/L
same,Concentration after 1a,"[1]; DW 2 (pH 6.97), Cu^2+, initial 0.271 mg/l",<0.05^4) mg/l
same,Concentration after 1a,"[1]; DW 2 (pH 6.97), Mg^2+, initial 13.60 mg/l",0.102 mg/L
same,Concentration after 1a,"[1]; DW 2 (pH 6.97), Mn^2+, initial <0.02 mg/l",<0.02 mg/L
same,Concentration after 1a,"[1]; DW 2 (pH 6.97), Na^+, initial 19.0 mg/l",17.3 mg/L
same,Concentration after 1a,"[1]; DW 2 (pH 6.97), Sr^2+, initial 0.113 mg/l",0.029 mg/L
same,Concentration after 1a,"[1]; DW 2 (pH 6.97), Zn^2+, initial 0.284 mg/l",0.026 mg/L
same,Expulsion [%],"[1]; DW 2, Al^3+",≥ 53^5) %
same,Expulsion [%],"[1]; DW 2, Ca^2+",98%
same,Expulsion [%],"[1]; DW 2, Cu^2+",≥ 82^5) %
same,Expulsion [%],"[1]; DW 2, Mg^2+",99%
same,Expulsion [%],"[1]; DW 2, Na^+",9%
same,Expulsion [%],"[1]; DW 2, Sr^2+",74%
same,Expulsion [%],"[1]; DW 2, Zn^2+",91%
same,Expulsion [%],[2]; As^3/5+,≥ 61.7^2) %
same,Expulsion [%],[2]; Ca^2+,75.4%
same,Expulsion [%],[2]; Cd^2+,≥ 89.4^5) %
same,Expulsion [%],[2]; Cr^3+,23.9%
same,Expulsion [%],[2]; Fe^2/3+,22.8%
same,Expulsion [%],[2]; Hg^1/2+ (CVAAS),99.0^1) %
same,Expulsion [%],[2]; Pb^2+,≥ 68.9^5) %
same,Expulsion [%],[2]; Sr^2+,84.3%
same,Expulsion [%],[2]; Zn^2+,76.8%
same,Expulsion [%],"[3]; Ag^+, minimum within pH range 1.5-12",>84%
same,Expulsion [%],"[3]; Al^3+, minimum within pH range 1-2",>96%
same,Expulsion [%],"[3]; Au^3+, minimum within pH range 0-2",>39%
same,Expulsion [%],"[3]; Ba^2+, minimum within pH range 3-12",>75%
same,Expulsion [%],"[3]; Bi^3+, minimum within pH range 0.5-4",100%
same,Expulsion [%],"[3]; Ca^2+, minimum within pH range 4-12",>50%
same,Expulsion [%],"[3]; Cd^2+, minimum within pH range 3-11",>36%
same,Expulsion [%],"[3]; Co^2+, minimum within pH range 4-11",>77%
same,Expulsion [%],"[3]; Cr^3+, minimum within pH range 2.5-12",>60%
same,Expulsion [%],"[3]; Cr^6+, As^3/5+, Ta^5+, within pH range 0-12",<8%
same,Expulsion [%],"[3]; Cu^2+, minimum within pH range 3-11",>87%
same,Expulsion [%],"[3]; Cu^+, minimum within pH range 3-11",>79%
same,Expulsion [%],"[3]; Eu^3+, minimum within pH range 2-8",70%
same,Expulsion [%],"[3]; Fe^2+, minimum within pH range 3-10",>79%
same,Expulsion [%],"[3]; Fe^3+, minimum within pH range 1-11",>55%
same,Expulsion [%],"[3]; Ga^3+, minimum within pH range 0.5-1",100%
same,Expulsion [%],"[3]; Ga^3+, minimum within pH range 6-11",>90%
same,Expulsion [%],"[3]; Hg^2+, minimum within pH range 2-11",>90%
same,Expulsion [%],"[3]; Hg^+, minimum within pH range 2-11",>80%
same,Expulsion [%],"[3]; Ir^3+, minimum within pH range 0.0-0.5",>65%
same,Expulsion [%],"[3]; La^3+, minimum within pH range 0-3.8",>40%
same,Expulsion [%],"[3]; Li^+, Na^+, K^+, within pH range 0-12",<5%
same,Expulsion [%],"[3]; Mg^2+, minimum within pH range 4-12",>74%
same,Expulsion [%],"[3]; Mn^2+, minimum within pH range 4-10",>69%
same,Expulsion [%],"[3]; Mo^6+, minimum within pH range 4-10",>55%
same,Expulsion [%],"[3]; Nb^5+, minimum within pH range 0-12",>40%
same,Expulsion [%],"[3]; Nd^3+, minimum within pH range 2-8",>75%
same,Expulsion [%],"[3]; Ni^2+, minimum within pH range 4-11",>40%
same,Expulsion [%],"[3]; Os^4+, minimum within pH range 5-7",>40%
same,Expulsion [%],"[3]; Pb^2+, minimum within pH range 2-9",>79%
same,Expulsion [%],"[3]; Pd^2+, minimum within pH range 7-12",>65%
same,Expulsion [%],"[3]; Pt^2+, minimum within pH range 0-1",>60%
same,Expulsion [%],"[3]; Rh^3+, minimum within pH range 2-10",>19%
same,Expulsion [%],"[3]; Ru^3+, minimum within pH range 2-11",>55%
same,Expulsion [%],"[3]; Sb^3+, minimum within pH range 0.5-11",>75%
same,Expulsion [%],"[3]; Sc^3+, minimum within pH range 0-12",>80%
same,Expulsion [%],"[3]; Si^4+, Se^4/6+, within pH range 0-12",<2%
same,Expulsion [%],"[3]; Sn^2+, minimum within pH range 8-10",100%
same,Expulsion [%],"[3]; Sn^4+, minimum within pH range 7-11",>91%
same,Expulsion [%],"[3]; Sr^2+, minimum within pH range 4-12",>80%
same,Expulsion [%],"[3]; Ti^4+, minimum within pH range 10-12",>35%
same,Expulsion [%],"[3]; V^4+, minimum within pH range 0-0.5",>30%
same,Expulsion [%],"[3]; W^6+, minimum within pH range 0.5-3",>12%
same,Expulsion [%],"[3]; Y^3+, minimum within pH range 1.5-4 >10",>60%
same,Expulsion [%],"[3]; Zn^2+, minimum within pH range 4-11",>75%
same,Expulsion [%],"[3]; Zr^4+, minimum within pH range 0-4.8-10",60%
same,Expulsion [%],[4]; Al^3+,99.8^1) %
same,Expulsion [%],[4]; Cr^3+,0%
same,Expulsion [%],[4]; Fe^2/3+,≥ 97.0^4) %
same,Expulsion [%],[4]; Ga^3+,93.2^2) %
same,Expulsion [%],[4]; Mg^2+,0%
same,Expulsion [%],[4]; Mn^2+,9%
same,Expulsion [%],[4]; Ni^2+,0%
same,Expulsion [%],[4]; V^4+,99.7^3) %
same,Expulsion [%],[4]; Zn^2+,23%

# — patent US20140263071A1, “METHOD FOR COLLECTING METALS” (CHEMEC OY AB, priority 2011, published 2014)
